Results reported in US9845311B2, “Nrf2 activating compounds and uses thereof” (RIGEL PHARMACEUTICALS, INC., priority 2016, dated 2017).
Structures can show the parent of a compound that is named as a salt.

Key:
[1] = tested on: NrF2 (Nuclear factor (erythroid-derived 2)-like 2); experiment: NrF2 activation in a whole cell nuclear translocation assay; format: cell-based
Procedure: Compounds are tested in a NrF2 (Nuclear factor (erythroid-derived 2)-like 2) translocation assay by adapting the methods set forth in U.S. Pat. No. 8,101,373, the disclosure of which is incorporated herein by reference. A result of NrF2 activation in the assay by the present compounds is an indication of their anti-inflammatory activity. […] In addition to monomethyl fumarate and dimethyl fumarate, bardoxolone methyl may be used as a positive control.

[2] = Glutathione depletion assay (Michael addition to reduced glutathione, followed by 1H NMR); format: physicochemical; conditions: 2 equiv. reduced glutathione, d6-DMSO, 35° C.
Excerpt: See, for example, Lehmann et al. Dimethyfumarate Induces Immunosuppression via Glutathione Depletion and Subsequent Induction of Heme Oxygenase 1, Journal of Investigative Dermatology (2007) 127, 835-845. Accordingly, the present compounds may be assessed in vitro by reaction with glutathione as follows:
(with the top securely fastened).
In all the above cases, dis-appearance of the alkene proton signals from the starting material are used to determine the extent of Michael reaction with glutathione.
As would be understood by those of skill in the art, the above experiments can be repeated by varying the equivalents of reduced glutathione (0.5 to 2 equivalents); the reactions can also be run in a mixture of d6-DMSO and D2O; and the temperature of the reaction can also be varied from room temperature to 35° C. (35° C. being used to mimic body temperature). As used herein “majority reaction” means a greater than 50% reduction in alkene proton signal as observed by ^1H NMR.

[3] = tested on: experimental autoimmune encephalomyelitis (EAE); experiment: Experimental autoimmune encephalomyelitis (EAE) animal model; format: in vivo, mice; conditions: dosed at 60 mg/kg beginning on the day of immunization

EC50 [1] [µM]	SMILES	time to majority reaction with glutathione (greater than 50% reduction in alkene proton signal by 1H NMR) [2] [h]	onset of disease paralysis [3]
~127	COC(=O)/C=C/C(=O)O [Monomethyl fumarate, monomethylfumarate]	–	–
–	COC(=O)/C=C/n1nnn(C)c1=O [methyl (E)-3-(4-methyl-5-oxo-4,5-dihydro-1H-tetrazol-1-yl)acrylate]	≤ 30	–
–	COC(=O)/C=C/n1nn[nH]c1=O [methyl (E)-3-(5-oxo-4,5-dihydro-1H-tetrazol-1-yl)acrylate]	≤ 30	significantly prevents the onset of disease paralysis
